These results are taken from paper PMC7463460, “Structure and Antiparasitic Activity Relationship of Alkylphosphocholine Analogues against Leishmania donovani” (Microorganisms, 2020).

Where “and” joins values, the source holds several entries; their conditions need not be identical. Equal entries are not always repeated. A value given as a limit tells only on which side of the number the result lay.

As usually defined, the IC50 is the concentration at which inhibition is half-maximal. One may read the IC90 as the concentration needed for an effect of 90%.

What all share (assay type): cell-based, Leishmania donovani
Experiment [1] concerns L. donovani LV82 intracellular amastigotes. In words: Intracellular amastigote assay in bone-marrow-derived macrophages, strain LV82. As to conditions: for IC50 / IC90: Leishmania donovani, Macrophage; for IC50: in Mus musculus, 72 h; for IC90: LV82; for Selectivity Index (SI50): macrophage CC50 / LV82 intracellular amastigote IC50. As for the experimental part:
In the macrophage studies, the method described in previous studies was used as follows. […] It is possible that intracellular macrophage parasites could have been at different developmental stages at 24 h post-infection. […] Therefore, we assumed that the effect of compounds on the amastigote stage rather than the promastigotes stage was determined in in vitro macrophage studies.
The plate was incubated for a further 24 h, the medium removed, and each well washed with PBS to eliminate non-internalized parasites, which were monitored microscopically. […] Wells with macrophage and with no drug or promastigotes added were used in control experiments.
(§1) Luciferin solution (1 µg/mL in 20 µL medium without FCS) was added to the appropriate wells of the 96-well plate at the end of the experiment and the amount of light emitted/well was measured using a luminometer (Biotek Synergy HT, relative light units) using a wavelength/bandwidth of 440/40 nm, or IVIS® imaging (Spectrum Living Image system®, total flux, photons/sec).
The effect of drug treatment on parasite survival was determined by calculating the mean suppression in the light emitted from the drug-treated experimental sample compared to the mean control value and used to calculate the IC50 using Grafit® software (version 5.0, Erithacus Software, East Grinstead, West Sussex, UK). The effect of drug alone on the viability of uninfected macrophages was determined using the same experimental protocol above, but cell viability was determined using an alamar blue colorimetric assay. […] The effect of drug treatment on cell survival, which correlates with the magnitude of dye reduction, was expressed as percentage viability (or alamar blue reduction) and determined using the formula provided in the manufacturer’s protocol % alamar blue reduction=(εoxλ)(Aλ1)−(εoxλ1)(Aλ2)/(εredλ1)(A^′λ2)−(εredλ2)(A^′λ1)x100

The test system of experiment [2] is L. donovani 275/18 Milt-Sb-resistant intracellular amastigotes. In words: Intracellular amastigote assay, Milt-resistant 275/18. As to conditions: for IC50: Leishmania donovani, read-out: Mean IC50 Value Amastigotes; for Selectivity Index (SI50): macrophage CC50 / amastigote IC50.
Source text: (§2) L. donovani cloned strains with different Sb susceptibility backgrounds were derived from isolates obtained from VL patients at the B.P. Koirala Institute of Health Sciences, Dharan, Nepal: MHOM/NP/02/BPK282/0cl4 (Sb sensitive, Sb-S). MHOM/NP/02/BPK087/0cl11 (Sb intermediate, Sb-I) and MHOM/NP/02/BPK275/0cl18 (Sb resistance, Sb-R [13]). In addition, Milt-resistant parasites raised against these three Sb sensitivity backgrounds and the Sb-sensitive strain (MHOM/ET/67:LV82) was also used in studies. Luciferase expressing promastigotes for the LV82 and Nepalese strains were prepared using previously published methods and the integrative construct (a gift from Dr D.F. Smith), designated pGL1313, contained pSSU-int fragments to facilitate integration into the ribosomal RNA locus of Leishmania.
In the macrophage studies, the method described in previous studies was used as follows. Briefly, bone-marrow-derived BALB/c macrophages (1–2 × 10^5) in 100 µL complete RPMI 1640 medium were added to the wells of a 96 well plate and left to adhere for 24 h at 37 °C, 5% CO₂/95% air. The medium was removed and 100 µL of the appropriate L. donovani luciferase-expressing promastigotes line (parasite: host cell ratio 1:10, 1:20 or 1:40) was added to each well, the ratio used reflected the infectivity of the strain and ensured that control data gave a bioluminescent signal within the same range. […] The variability in infectivity complicates strain to strain comparisons, but we decided to focus on achieving good infection levels in controls so that the effect of drug treatment could be determined. It is possible that intracellular macrophage parasites could have been at different developmental stages at 24 h post-infection. […] Therefore, we assumed that the effect of compounds on the amastigote stage rather than the promastigotes stage was determined in in vitro macrophage studies.
The plate was incubated for a further 24 h, the medium removed, and each well washed with PBS to eliminate non-internalized parasites, which were monitored microscopically. When the wells were devoid of external parasites, 100 µL of the medium alone (control) or appropriate APC compound was then added (0.01–0.197 µg/mL, n = 3/treatment). […]. All plates were incubated for 72 h at 37 °C, 5% CO₂/95% air. Wells with macrophage and with no drug or promastigotes added were used in control experiments.
as §1
The effect of drug treatment on parasite survival was determined by calculating the mean suppression in the light emitted from the drug-treated experimental sample compared to the mean control value and used to calculate the IC50 using Grafit® software (version 5.0, Erithacus Software, East Grinstead, West Sussex, UK). The effect of drug alone on the viability of uninfected macrophages was determined using the same experimental protocol above, but cell viability was determined using an alamar blue colorimetric assay. At the end of the incubation period, cells’ 10 µL resazurin solution (0.02% w/v) was added to control and drug treated cells and the absorbance of samples was read at 575 and 595 nm. The effect of drug treatment on cell survival, which correlates with the magnitude of dye reduction, was expressed as percentage viability (or alamar blue reduction) and determined using the formula provided in the manufacturer’s protocol % alamar blue reduction=(εoxλ)(Aλ1)−(εoxλ1)(Aλ2)/(εredλ1)(A^′λ2)−(εredλ2)(A^′λ1)x100 […]

For experiment [3], the system named is L. donovani 282/4 (Sb-sensitive) promastigotes. In words: Promastigote luciferase assay, Sb-sensitive strain 282/4. As to conditions: strain 282/4, Sb-sensitive; for IC50: Leishmania donovani.
Source text: as §2
The anti-leishmanial activity of APC against L. donovani luciferase-expressing promastigotes was determined by adding of the appropriate 100 µL parasite line (10^6 cells/mL) to the wells of a 96-well plate and adding 100 µL medium alone (controls) or 100 µL of APC compound (0.01 µg/mL–6.25 µg/mL, n = 3/treatment). The plate was incubated for 72 h at 25 °C. In combination assays, the additional compound/compounds, at a final concentration of 0.195 or 0.39 µg/mL, was added to the initial APC being tested.
as §1
The effect of drug treatment on parasite survival was determined by calculating the mean suppression in the light emitted from the drug-treated experimental sample compared to the mean control value and used to calculate the IC50 using Grafit® software (version 5.0, Erithacus Software, East Grinstead, West Sussex, UK). The effect of drug alone on the viability of uninfected macrophages was determined using the same experimental protocol above, but cell viability was determined using an alamar blue colorimetric assay. At the end of the incubation period, cells’ 10 µL resazurin solution (0.02% w/v) was added to control and drug treated cells and the absorbance of samples was read at 575 and 595 nm. The effect of drug treatment on cell survival, which correlates with the magnitude of dye reduction, was expressed as percentage viability (or alamar blue reduction) and determined using the formula provided in the manufacturer’s protocol % alamar blue reduction=(εoxλ)(Aλ1)−(εoxλ1)(Aλ2)/(εredλ1)(A^′λ2)−(εredλ2)(A^′λ1)x100

Setting [4] is: LV82, intracellular in BALB/c macrophages, 3 days, 37 °C.
Where [5] appears, read: strain 275/18, Milt-Sb-resistant.

As for `CCCCCCCCCCCCOP(=O)([O-])OCC[N+](C)(C)C` [APC12, dodecylphosphocholine], in experiment [1] (setting [4]), the “Amastigote mean IC50” value came out at 0.01 ± 0.00 µg/mL. The IC50 in experiment [1] (setting [4]) is 0.009 µg/mL and 26 nM; in experiment [2], 4.45 µg/mL and 12.7 µM; in experiment [3] it was 0.55 µg/mL and 1.56 µM. The IC90 in experiment [1] came to 0.081 ± 0.01 µg/mL. In experiment [1] (intracellular amastigotes), the “fold more active than Milt (APC16)” value came to 4 fold. Besides, the “Selectivity Index (SI50)” value is 3870.77 in experiment [1] and 7.95 in experiment [2] (setting [5]). Moreover, the “Promast: Amast Ratio” value in experiment [3] is on record as 2.09.

Regarding `CCCCCCCCCCCCCCOP(=O)([O-])OCC[N+](C)(C)C` [APC14, tetradecylphosphocholine], the IC50 in experiment [1] (setting [4]) is 0.03 µg/mL and 66 nM; in experiment [2], 34.9 µg/mL and 91.8 µM; in experiment [3], 0.44 µg/mL and 1.16 µM. Moreover, the “Selectivity Index (SI50)” value is 1632.58 in experiment [1] and 1.17 in experiment [2] (setting [5]). Also, the “Cross-Resistance Index (CRI50) Amast” value in experiment [2] (setting [5]) is above 20.144. Moreover, the “Promast: Amast Ratio” value in experiment [3] is listed as 3.64.

As for `CCCCCCCCCCCCCCCCOP(=O)([O-])OCC[N+](C)(C)C` [APC16, hexadecylphosphocholine, reference compound], the IC50 in experiment [1] (setting [4]) was 0.1 µg/mL and 250 nM; in experiment [2], > 61.4 µg/mL and > 151 µM; in experiment [3], 0.84 µg/mL and 2.06 µM. The IC90 in experiment [1] came to 0.9 ± 0.016 µg/mL. Besides, in experiment [3], the “Promast: Amast Ratio” value was 2.68.
